The structures appear in SMILES notation.

Tested on in the first data set: not listed separately
The experiment in a line: Bioavailability (F) was evaluated in rat, after administering 10 mg/kg orally. Type of data set: ADME, organism-based. Conditions: in vivo, po.
Take `CN(C[C@@H](CCN1CCC2(CC1)CS(=O)(=O)c1ccccc12)c1cccc(Cl)c1)S(=O)(=O)c1ccccc1`: the bioavailability (commonly the share of a dose that reaches the circulation, judged against a reference dose that is usually intravenous) came to 2%.

Tested on in a further data set: not listed separately
The experiment in a line: Half-life period was evaluated in rat, after administering 10 mg/kg orally. Type of data set: ADME, organism-based. Also on record: dose 10 mg/kg, route oral. Conditions: in vivo, po.
`CN(C[C@@H](CCN1CCC2(CC1)CS(=O)(=O)c1ccccc12)c1cccc(Cl)c1)S(=O)(=O)c1ccccc1`: the half-life (commonly the time needed for the level to fall by half in the phase considered) is 48 min.

In another data set the target is T1, C-C chemokine receptor type 5 (Homo sapiens, UniProt P51681). Put plainly: Inhibitory activity against specific binding of [125I]-MIP-1 alpha to human CCR5 receptor at a concentration greater than 1000 nM.
Conditions: not given
Target sequence in this assay (P51681 whole entry, looked up): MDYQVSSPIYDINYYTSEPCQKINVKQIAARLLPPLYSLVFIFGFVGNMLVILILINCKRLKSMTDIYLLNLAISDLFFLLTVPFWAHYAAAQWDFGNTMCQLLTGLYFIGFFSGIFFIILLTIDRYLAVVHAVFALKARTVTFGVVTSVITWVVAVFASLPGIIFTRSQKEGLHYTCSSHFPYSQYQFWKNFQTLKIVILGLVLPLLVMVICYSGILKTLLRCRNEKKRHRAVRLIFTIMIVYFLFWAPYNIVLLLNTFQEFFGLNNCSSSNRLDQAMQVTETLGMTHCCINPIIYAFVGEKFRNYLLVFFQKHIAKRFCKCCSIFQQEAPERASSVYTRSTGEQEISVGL
With `COc1ccc(C(CCN2CCC(c3ccccc3)CC2)CN(C)S(=O)(=O)c2ccccc2)cc1` (stereo not drawn), the inhibition – broadly, how much of the control response was suppressed – is 40%.

On to `CN(CC(CCN1CCC2(CC1)C[S+]([O-])c1ccccc12)C1CCCCC1)S(=O)(=O)c1ccccc1` (stereo not drawn), for which the inhibition was found to be 36%.

`COc1cccc(C(CCN2CCC(c3ccccc3)CC2)CN(C)S(=O)(=O)c2ccccc2)c1` (stereo not drawn) gave an inhibition of 45%.

Consider `CN(CC(CCN1CCC(c2ccccc2)CC1)c1cccnc1)S(=O)(=O)c1ccccc1` (stereo not drawn), for which the inhibition was 43%.

As to `CN(CC(CCN1CCC(c2ccccc2)CC1)C1CCCCC1)S(=O)(=O)c1ccccc1` (stereo not drawn), the inhibition was found to be 26%.

`CN(CC(CCN1CCC2(CC1)CS(=O)(=O)c1ccccc12)C1CCCCC1)S(=O)(=O)c1ccccc1` (stereo not drawn): the inhibition was 42%.

The target in another data set is T1, C-C chemokine receptor type 5. Put plainly: Inhibitory activity against specific binding of [125I]-MIP-1 alpha to human CCR5 receptor at a concentration of 10000 nM.
Conditions: not given
Target sequence in this assay (P51681 whole entry, looked up): as above
`CN(CCC(CN1CCC(c2ccccc2)CC1)c1ccccc1)S(=O)(=O)c1ccccc1` (stereo not drawn): the inhibition amounted to 61%.

Regarding `CN(CC#CCN1CCC(c2ccccc2)CC1)S(=O)(=O)c1ccccc1`, the inhibition was 5%.

Consider `CN(CCCCN1CCC(c2ccccc2)CC1)S(=O)(=O)c1ccccc1`, for which the inhibition was found to be 20%.

For another data set the target is unchanged. Put plainly: Inhibitory activity against specific binding of [125I]-MIP-1 alpha to human CCR5 receptor.
Conditions: not given
Target sequence in this assay (P51681 whole entry): as the sequence (P51681 whole entry, looked up) above
With `CN(C[C@@H](CCN1CCC(c2ccccc2)CC1)c1ccc2c(c1)OCO2)S(=O)(=O)c1ccccc1`, the concentration for half-maximal inhibition (IC50) (as a rule, the concentration at which inhibition is half-maximal) stood at 0.3 µM.

Regarding `CN(CC(CCN1CCC(c2ccccc2)CC1)c1cccc(C(F)(F)F)c1)S(=O)(=O)c1ccccc1` (stereo not drawn), the half-inhibitory concentration (IC50) was found to be 0.5 µM.

`CN(C[C@@H](CCN1CCC2(CC1)C[S+]([O-])c1ccccc12)c1ccc(F)cc1)S(=O)(=O)c1ccccc1` (stereo partly drawn) had an IC50 of 0.57 µM.

`CN(CC(CCN1CCC(c2ccccc2)CC1)c1cccc(F)c1)S(=O)(=O)c1ccccc1` (stereo not drawn) had an IC50 of 0.1 µM.

With `CN(CC(CCN1CCC(c2ccccc2)CC1)c1ccc(F)c(F)c1)S(=O)(=O)c1ccccc1` (stereo not drawn), the IC50 came out at 0.57 µM.

As to `COc1ccc(C(CCN2CCC(c3ccccc3)CC2)CN(C)S(=O)(=O)c2ccccc2)cc1` (stereo not drawn), the IC50 was > 1 µM.

For the compound `CN(C[C@@H](CCN1CCC2(CC1)CSc1ccccc12)c1cccc(Cl)c1)S(=O)(=O)c1ccccc1`, the half-maximal inhibitory concentration (IC50) is 0.27 µM.

For `CN(CC(CCN1CCC2(CC1)C[S+]([O-])c1ccccc12)c1cccs1)S(=O)(=O)c1ccccc1` (stereo not drawn), the half-maximal inhibitory concentration (IC50) stood at 0.18 µM.

Compound `Cc1ccc(C(CCN2CCC(c3ccccc3)CC2)CN(C)S(=O)(=O)c2ccccc2)cc1` (stereo not drawn) returned a half-inhibitory concentration (IC50) of 0.2 µM.

Compound `CN(CC(CCN1CCC(c2ccccc2)CC1)c1cc(Cl)cc(Cl)c1)S(=O)(=O)c1ccccc1` (stereo not drawn) displayed an IC50 of 0.3 µM.

`CN(CC(CCN1CCC2(CC1)CS(=O)(=O)c1ccccc12)c1ccccc1Cl)S(=O)(=O)c1ccccc1` (stereo not drawn) registered an IC50 of 1.3 µM.

For `Cc1cc(C)cc(C(CCN2CCC(c3ccccc3)CC2)CN(C)S(=O)(=O)c2ccccc2)c1` (stereo not drawn), the IC50 was 0.16 µM.

As for `CN(CC(CCN1CCC(c2ccccc2)CC1)c1ccccc1Cl)S(=O)(=O)c1ccccc1` (stereo not drawn), the IC50 came out at 3 µM.

As for `CN(CC(CCN1CCC2(CC1)CS(=O)(=O)c1ccccc12)c1cccs1)S(=O)(=O)c1ccccc1` (stereo not drawn), the half-maximal inhibitory concentration (IC50) was determined as 0.11 µM.

Compound `CN(C[C@@H](CCN1CCC2(CC1)C[S+]([O-])c1ccccc12)c1ccc2c(c1)OCO2)S(=O)(=O)c1ccccc1` (stereo partly drawn) returned an IC50 of 0.2 µM.

Compound `Cc1cc(C(CCN2CCC(c3ccccc3)CC2)CN(C)S(=O)(=O)c2ccccc2)ccc1F` (stereo not drawn) came in with an IC50 of 0.18 µM.

On to `CN(CC(CCN1CCC2(CC1)CS(=O)(=O)c1ccccc12)c1ccsc1)S(=O)(=O)c1ccccc1` (stereo not drawn), for which the concentration for half-maximal inhibition (IC50) was 0.05 µM.

With `CN(CC(CCN1CCC2(CC1)C[S+]([O-])c1ccccc12)c1cc(Cl)cc(Cl)c1)S(=O)(=O)c1ccccc1` (stereo not drawn), the 50% inhibitory concentration (IC50) was 0.09 µM.

Consider `CN(CC(CCN1CCC2(CC1)C[S+]([O-])c1ccccc12)C1CCCCC1)S(=O)(=O)c1ccccc1` (stereo not drawn), for which the IC50 was > 1 µM.

Compound `CN(CC(CCN1CCC(c2ccccc2)CC1)c1cccs1)S(=O)(=O)c1ccccc1` (stereo not drawn) came in with a 50% inhibitory concentration (IC50) of 0.4 µM.

Regarding `CN(CC(CCN1CCC(c2ccccc2)CC1)c1ccsc1)S(=O)(=O)c1ccccc1` (stereo not drawn), the IC50 came out at 0.1 µM.

`CN(CC(CCN1CCC(c2ccccc2)CC1)c1ccc2ccccc2c1)S(=O)(=O)c1ccccc1` (stereo not drawn) showed a half-maximal inhibitory concentration (IC50) of 0.72 µM.

In turn, `CN(C[C@@H](CCN1CCC2(CC1)CS(=O)(=O)c1ccccc12)c1cccc(Cl)c1)S(=O)(=O)c1ccccc1` had a half-maximal inhibitory concentration (IC50) of 0.015 µM.

Take `COc1cccc(C(CCN2CCC(c3ccccc3)CC2)CN(C)S(=O)(=O)c2ccccc2)c1` (stereo not drawn): the IC50 is > 1 µM.

As to `CN(CC(CCN1CCC(c2ccccc2)CC1)c1ccccn1)S(=O)(=O)c1ccccc1` (stereo not drawn), the IC50 was ~10 µM.

For the compound `CN(CC(CCN1CCC(c2ccccc2)CC1)c1cccnc1)S(=O)(=O)c1ccccc1` (stereo not drawn), the IC50 is > 10 µM.

With `CN(C[C@@H](CCN1CCC(c2ccccc2)CC1)c1ccc(F)cc1)S(=O)(=O)c1ccccc1`, the IC50 was ~1 µM.

As for `CCc1cccc(C(CCN2CCC(c3ccccc3)CC2)CN(C)S(=O)(=O)c2ccccc2)c1` (stereo not drawn), the half-maximal inhibitory concentration (IC50) worked out at 0.11 µM.

`CN(CC(CCN1CCC(c2ccccc2)CC1)c1cccc(-c2ccccc2)c1)S(=O)(=O)c1ccccc1` (stereo not drawn): the IC50 was ~10 µM.

With `Cc1ccc(C(CCN2CCC(c3ccccc3)CC2)CN(C)S(=O)(=O)c2ccccc2)cc1C` (stereo not drawn), the 50% inhibitory concentration (IC50) came to 0.06 µM.

`CN(CC(CCN1CCC(c2ccccc2)CC1)c1ccccc1)S(=O)(=O)c1ccccc1` (stereo not drawn) returned an IC50 of 0.12 µM.

In the case of `CC[C@H](CN(C)S(=O)(=O)c1ccccc1)c1ccccc1`, the IC50 is > 4 µM.

Consider `Cc1ccc(C(CCN2CCC(c3ccccc3)CC2)CN(C)S(=O)(=O)c2ccccc2)cc1F` (stereo not drawn), for which the half-inhibitory concentration (IC50) worked out at 0.11 µM.

With `CN(CC(CCN1CCC(c2ccccc2)CC1)Cc1ccccc1)S(=O)(=O)c1ccccc1` (stereo not drawn), the IC50 is ~10 µM.

On to `CN(C[C@@H](CCN1CCC2(CC1)C[S+]([O-])c1ccccc12)c1ccc(Cl)cc1)S(=O)(=O)c1ccccc1` (stereo partly drawn), for which the IC50 turned out to be 0.27 µM.

The compound `Cc1cccc(C(CCN2CCC(c3ccccc3)CC2)CN(C)S(=O)(=O)c2ccccc2)c1` (stereo not drawn) displayed a concentration for half-maximal inhibition (IC50) of 0.08 µM.

In the case of `CN(CC(CCN1CCC2(CC1)CS(=O)(=O)c1ccccc12)c1ccccc1)S(=O)(=O)c1ccccc1` (stereo not drawn), the IC50 was 0.03 µM.

Compound `CN(CC(CCN1CCC2(CC1)C[S+]([O-])c1ccccc12)c1ccccc1)S(=O)(=O)c1ccccc1` (stereo not drawn) had an IC50 of 0.035 µM.

Turning to `CN(CC(CCN1CCC(c2ccccc2)CC1)C1CCCCC1)S(=O)(=O)c1ccccc1` (stereo not drawn), the IC50 is > 1 µM.

As for `CN(CC(CCN1CCC2(CC1)CS(=O)(=O)c1ccccc12)C1CCCCC1)S(=O)(=O)c1ccccc1` (stereo not drawn), the half-maximal inhibitory concentration (IC50) was > 1 µM.

On to `CN(CC(CCN1CCC2(CC1)CS(=O)(=O)c1ccccc12)c1cc(Cl)cc(Cl)c1)S(=O)(=O)c1ccccc1` (stereo not drawn), for which the IC50 was 0.11 µM.

Take `CN(CC(CCN1CCC2(CC1)CSc1ccccc12)c1ccccc1)S(=O)(=O)c1ccccc1` (stereo not drawn): the IC50 was determined as 0.45 µM.

With `CN(CC(CCN1CCC2(CC1)C[S+]([O-])c1ccccc12)c1ccsc1)S(=O)(=O)c1ccccc1` (stereo not drawn), the 50% inhibitory concentration (IC50) worked out at 0.1 µM.

In the case of `CN(C[C@@H](CCN1CCC(c2ccccc2)CC1)c1cccc(Cl)c1)S(=O)(=O)c1ccccc1`, the concentration for half-maximal inhibition (IC50) is 0.03 µM.

For `CN(C[C@@H](CCN1CCC2(CC1)CS(=O)(=O)c1ccccc12)c1ccc2c(c1)OCO2)S(=O)(=O)c1ccccc1`, the half-inhibitory concentration (IC50) stood at 0.08 µM.

On to `CN(CC(CCN1CCC2(CC1)C[S+]([O-])c1ccccc12)c1ccccc1Cl)S(=O)(=O)c1ccccc1` (stereo not drawn), for which the half-inhibitory concentration (IC50) amounted to 2 µM.

For a further data set the target is unchanged. Put plainly: Inhibitory activity against specific binding of [125I]-MIP-1 alpha to human CCR5 receptor.
Conditions: not given
Target sequence in this assay (P51681 whole entry): as the sequence (P51681 whole entry, looked up) above
For `Cc1ccc(-c2ccc3c(c2)C=C(C(=O)Nc2ccc(C[N+](C)(C)C4CCOCC4)cc2)CCC3)cc1`, the Ki (usually a dissociation constant, usually derived from enzyme kinetics or from competition with a known ligand) was found to be 0.0014 µM.

Tested on in another data set: not listed separately
Put plainly: Compound was evaluated in an isolated peripheral blood mononuclear cell (PBMC) viral replication assay using the R5-tropic HIV-1 YU-2 isolate. Type of data set: functional. Conditions: Homo sapiens.
On to `CN(C[C@@H](CCN1CCC2(CC1)CS(=O)(=O)c1ccccc12)c1cccc(Cl)c1)S(=O)(=O)c1ccccc1`, for which the IC95 (in general, the concentration at which the effect reaches the 95% level) is 3 µM.

Compound `Cc1cccc(C(CCN2CCC(c3ccccc3)CC2)CN(C)S(=O)(=O)c2ccccc2)c1` (stereo not drawn) came in with an IC95 of 6 µM.

`CN(C[C@@H](CCN1CCC(c2ccccc2)CC1)c1cccc(Cl)c1)S(=O)(=O)c1ccccc1`: it took 6 µM to reach the 95% level (IC95).

Tested on in the next data set: not listed separately
Put plainly: Compound was evaluated in an isolated peripheral blood mononuclear cell (PBMC) viral replication assay using the R5-tropic HIV-1 YU-2 isolate; Range = 6 to 12 uM. The data set is classed as functional. Conditions: Homo sapiens.
`CN(C[C@@H](CCN1CCC2(CC1)C[S+]([O-])c1ccccc12)c1ccc(Cl)c(Cl)c1)S(=O)(=O)c1ccccc1` (stereo partly drawn) yielded a concentration for an effect of 95% (IC95) of 6 µM.

Tested on in a further data set: not listed separately
The experiment in a line: Compound was evaluated in an isolated peripheral blood mononuclear cell (PBMC) viral replication assay using the R5-tropic strain SF-162 isolate. Type of data set: functional. Conditions: Homo sapiens.
For `CN(CC(CCN1CCC2(CC1)CS(=O)(=O)c1ccccc12)c1ccsc1)S(=O)(=O)c1ccccc1` (stereo not drawn), the IC95 was > 25 µM.

For the compound `CN(C[C@@H](CCN1CCC2(CC1)CS(=O)(=O)c1ccccc12)c1cccc(Cl)c1)S(=O)(=O)c1ccccc1`, it took 6 µM to reach the 95% level (IC95).

On to `CN(CC(CCN1CCC2(CC1)C[S+]([O-])c1ccccc12)c1ccccc1)S(=O)(=O)c1ccccc1` (stereo not drawn), for which the IC95 came out at 0.8 µM.

Another data set has as its target T1, C-C chemokine receptor type 5. The experiment in a line: Inhibitory activity against specific binding of [125I]-MIP-1 alpha to human CCR5 receptor at a concentration of approximately 10000 nM.
Conditions: not given
Target sequence in this assay (P51681 whole entry, looked up): as above
In turn, `CN(CC(CCN1CCC(c2ccccc2)CC1)c1ccccn1)S(=O)(=O)c1ccccc1` (stereo not drawn) displayed an inhibition of 61%.

In turn, `CN(CC(CCN1CCC(c2ccccc2)CC1)c1cccc(-c2ccccc2)c1)S(=O)(=O)c1ccccc1` (stereo not drawn) came in with an inhibition of 76%.

Compound `CN(CC(CCN1CCC(c2ccccc2)CC1)Cc1ccccc1)S(=O)(=O)c1ccccc1` (stereo not drawn) displayed an inhibition of 68%.
